Experimental data from patent US7053175B1, “Synthetic peptides useful in biological assays for detecting infections caused by group O HIV-1 viruses” (Bio-Rad Pasteur, priority 1997, dated 2006).

Test system: sera from patients infected with group O HIV-1 retroviruses
Assay: Immunoenzymatic test: Test No. 1 (immunoreactivity of peptides coated on microplates)
Format: binding, human
Set-up: key to ABSORBANCE: >: signal greater than the reading capacity of the spectrophotometer
Details: for ABSORBANCE: cyclized peptide 2 μg/ml
Procedure: The sera used ESS, DUR, VAU and HAD are sera from French patients infected with group O HIV-1 retroviruses. The other serum samples from patients infected with group O HIV-1 retroviruses were obtained by the Yaoundé Pasteur Centre in Cameroon and were serotyped group O according to the serological algorithm described in AIDS (1977), 11, pp 445-453.
The HIV-negative sera (n=48) were obtained from healthy volunteers.
The synthetic peptides used were dissolved in water at a concentration of 1 mg/ml (stock solution). For the solid phase sensitization step (coating), 110 μl of a solution at 2 μg/ml of each peptide (obtained by diluting the stock solution with 0.1 M carbonate buffer solution) were added to each well of the microtitre plates Microtiter™ (NUNC). After incubating overnight at room temperature, the microplates were first washed with a Tris-NaCl buffer solution pH 7.4 containing 0.1% of Tween® 20 and 0.001% sodium merthiolate, and then saturated with a PBS solution containing 0.5% of Régilait™ (dried skimmed milk). After aspirating the saturating solution, the plates were heated for 10 min at 50° C.
The serum samples were diluted 1/5 with a skimmed milk solution (citrate buffer supplemented with 0.01% of phenol red, 0.25% of chloroform and 0.25% of Kathon®), deposited in the wells of the plates and incubated for 30 min at 40° C.
After washing with a Tris-NaCl buffer solution pH 7.4 containing 0.1% of Tween® 20 and 0.001% of sodium merthiolate, 100 μl of a solution of conjugate consisting of horseradish peroxidase-labelled anti-human IgG and IgM goat antibodies, containing as preservative 0.01% of sodium merthiolate, in solution in a citrate buffer solution supplemented with 30% glycerol and 25% normal foetal calf serum, were added to each plate well and then the plates were incubated for 30 min at 40° C.
After washing with a Tris-NaCl buffer solution pH 7.4 containing 0.1% of Tween® 20 and 0.001% of sodium merthiolate, the colour was developed by adding, to each well, 100 μl of O-phenylenediamine in solution in hydrogen peroxide. The microplates were then incubated for 30 min at room temperature and in the dark. The coloured reaction was then stopped by addition of 100 μl of 4N sulphuric acid. The absorbance (A) was determined at 490 and 620 nm.
The relative absorbance (A490-A620) read in each well is proportional to the immunoreactivity of each peptide. It indicates the ability of each peptide to react with the biological sample with which the test is carried out. The cut-off value was determined as being an absorbance equal to 0.15. It corresponds to the mean of the negative values (n=48) plus 12 standard deviations.
The reactivity of the peptides of the invention (peptide No. 3 (4B), peptide No. 2 (3B) and peptide No. 1 (2B), all in cyclized form), was compared with that of two synthetic peptides having, as sequence, a portion of the natural sequence of the envelope (env) of the VAU isolate (group O HIV-1 retrovirus) and comprising an immunodominant epitope of gp41.
For the study, these peptides were used in cyclized form.

Question: Which ABSORBANCE (serum 134) does the source give for “LLSLWGCRGRLVCYTSVQWNET [PEPTIDE No. 2 (3B)]” here?
Answer: Its ABSORBANCE is “>”.

Question: What about the ABSORBANCE (serum 402) of the same sequence?
Answer: Its ABSORBANCE is “>”.

Question: What about the ABSORBANCE (serum 625) of the same sequence?
Answer: The ABSORBANCE was “>”.

Question: And the ABSORBANCE (serum 1062)?
Answer: Its ABSORBANCE is “>”.

Question: And the ABSORBANCE (serum 1105*)?
Answer: Its ABSORBANCE is 1.031.

Question: And the ABSORBANCE (serum 1581)?
Answer: Its ABSORBANCE is “>”.

Question: And the ABSORBANCE (serum 1702)?
Answer: Its ABSORBANCE is “>”.

Question: What about the ABSORBANCE (serum 1754) of the same sequence?
Answer: The ABSORBANCE was “>”.

Question: And the ABSORBANCE (serum 2294)?
Answer: The ABSORBANCE was “>”.

Question: And the ABSORBANCE (serum 2312)?
Answer: Its ABSORBANCE is “>”.

Question: And the ABSORBANCE (serum 2313)?
Answer: Its ABSORBANCE is “>”.

Question: What about the ABSORBANCE (serum 2352) of the same sequence?
Answer: Its ABSORBANCE is “>”.

Question: And the ABSORBANCE (serum 2551)?
Answer: Its ABSORBANCE is “>”.

Question: What about the ABSORBANCE (serum 2700) of the same sequence?
Answer: Its ABSORBANCE is 0.274.

Question: And the ABSORBANCE (serum 3016)?
Answer: The ABSORBANCE was “>”.

Question: And the ABSORBANCE (serum 3136)?
Answer: Its ABSORBANCE is 0.992.

Question: What about the ABSORBANCE (serum 3235) of the same sequence?
Answer: Its ABSORBANCE is “>”.

Question: And the ABSORBANCE (serum 3236)?
Answer: Its ABSORBANCE is “>”.

Question: What about the ABSORBANCE (serum 3302) of the same sequence?
Answer: The ABSORBANCE was “>”.

Question: And the ABSORBANCE (serum 3482)?
Answer: The ABSORBANCE was “>”.

Question: What about the ABSORBANCE (serum 3529) of the same sequence?
Answer: Its ABSORBANCE is “>”.

Question: And the ABSORBANCE (serum 3600*)?
Answer: Its ABSORBANCE is “>”.

Question: What about the ABSORBANCE (serum 3627*) of the same sequence?
Answer: Its ABSORBANCE is “>”.

Question: What about the ABSORBANCE (serum 3637) of the same sequence?
Answer: The ABSORBANCE was “>”.

Question: What about the ABSORBANCE (serum 3653) of the same sequence?
Answer: The ABSORBANCE was “>”.

Question: What about the ABSORBANCE (serum 3771) of the same sequence?
Answer: Its ABSORBANCE is “>”.

Question: What about the ABSORBANCE (serum 3884*) of the same sequence?
Answer: Its ABSORBANCE is “>”.

Question: What about the ABSORBANCE (serum 3891) of the same sequence?
Answer: The ABSORBANCE was “>”.

Question: What about the ABSORBANCE (serum 3935) of the same sequence?
Answer: The ABSORBANCE was 0.893.

Question: What about the ABSORBANCE (serum 3945) of the same sequence?
Answer: Its ABSORBANCE is “>”.

Question: And the ABSORBANCE (serum 4021*)?
Answer: The ABSORBANCE was 0.119.

Question: And the ABSORBANCE (serum 4288*)?
Answer: Its ABSORBANCE is “>”.

Question: What about the ABSORBANCE (serum 4364) of the same sequence?
Answer: The ABSORBANCE was “>”.

Question: And the ABSORBANCE (serum 4434)?
Answer: Its ABSORBANCE is “>”.

Question: What about the ABSORBANCE (serum 4477) of the same sequence?
Answer: Its ABSORBANCE is “>”.

Question: And the ABSORBANCE (serum 4489*)?
Answer: Its ABSORBANCE is “>”.

Question: What about the ABSORBANCE (serum 5149*) of the same sequence?
Answer: The ABSORBANCE was “>”.

Question: And the ABSORBANCE (serum 5164)?
Answer: Its ABSORBANCE is “>”.

Question: And the ABSORBANCE (serum 5210)?
Answer: Its ABSORBANCE is “>”.

Question: What about the ABSORBANCE (serum 5270*) of the same sequence?
Answer: The ABSORBANCE was “>”.

Question: What about the ABSORBANCE (serum 5373) of the same sequence?
Answer: Its ABSORBANCE is “>”.

Question: What about the ABSORBANCE (serum 5453) of the same sequence?
Answer: Its ABSORBANCE is 0.081.

Question: And the ABSORBANCE (serum 5766*)?
Answer: The ABSORBANCE was “>”.

Question: And the ABSORBANCE (serum 5931)?
Answer: Its ABSORBANCE is “>”.

Question: What about the ABSORBANCE (serum 5969*) of the same sequence?
Answer: The ABSORBANCE was 0.282.

Question: What about the ABSORBANCE (serum 6111) of the same sequence?
Answer: Its ABSORBANCE is “>”.

Question: And the ABSORBANCE (serum 6165)?
Answer: Its ABSORBANCE is “>”.

Question: What about the ABSORBANCE (serum 6198*) of the same sequence?
Answer: Its ABSORBANCE is “>”.

Question: And the ABSORBANCE (serum 6295*)?
Answer: The ABSORBANCE was 1.063.

Question: What about the ABSORBANCE (serum 6487) of the same sequence?
Answer: The ABSORBANCE was 1.017.

Question: What about the ABSORBANCE (serum 6512*) of the same sequence?
Answer: Its ABSORBANCE is 0.785.

Question: And the ABSORBANCE (serum 6627)?
Answer: Its ABSORBANCE is “>”.

Question: What about the ABSORBANCE (serum 6689*) of the same sequence?
Answer: Its ABSORBANCE is “>”.

Question: And the ABSORBANCE (serum 6697)?
Answer: Its ABSORBANCE is “>”.

Question: And the ABSORBANCE (serum 6782)?
Answer: Its ABSORBANCE is 2.091.

Question: What about the ABSORBANCE (serum 6891) of the same sequence?
Answer: The ABSORBANCE was 0.614.

Question: What about the ABSORBANCE (serum 6976*) of the same sequence?
Answer: The ABSORBANCE was “>”.

Question: And the ABSORBANCE (serum 6998)?
Answer: The ABSORBANCE was “>”.

Question: And the ABSORBANCE (serum 7007)?
Answer: The ABSORBANCE was 2.334.

Question: And the ABSORBANCE (serum 7120)?
Answer: The ABSORBANCE was “>”.

Question: And the ABSORBANCE (serum 7212)?
Answer: The ABSORBANCE was “>”.

Question: And the ABSORBANCE (serum 7258*)?
Answer: The ABSORBANCE was “>”.

Question: What about the ABSORBANCE (serum 7297*) of the same sequence?
Answer: The ABSORBANCE was “>”.

Question: And the ABSORBANCE (serum 7439)?
Answer: Its ABSORBANCE is “>”.

Question: And the ABSORBANCE (serum 7443)?
Answer: The ABSORBANCE was “>”.

Question: What about the ABSORBANCE (serum DUR*) of the same sequence?
Answer: Its ABSORBANCE is “>”.

Question: What about the ABSORBANCE (serum ESS*) of the same sequence?
Answer: Its ABSORBANCE is “>”.

Question: And the ABSORBANCE (serum HAD)?
Answer: The ABSORBANCE was 0.518.

Question: And the ABSORBANCE (serum VAU*)?
Answer: The ABSORBANCE was “>”.

Question: What about the “immunoreactivity compared with the other peptides (in words)” value (summary of Table IV) of the same sequence?
Answer: Its value is “more immunoreactive than the VAU 22 AA peptide”.
